In ChEMBL document CHEMBL5120854, “Discovery of Natural Ursane-type SENP1 Inhibitors and the Platinum Resistance Reversal Activity Against Human Ovarian Cancer Cells: A Structure-Activity Relationship Study” (J Nat Prod, 2022):
Active and inactive are the calls of the source. No cut-off for these calls is given here.

Tests used:
[1] = biological target: T1, Sentrin-specific protease 1 (Homo sapiens) (UniProt Q9P0U3); assay: Inhibition of recombinant human SENP1 assessed as reduction in deSUMOylation of RanGAP1-SUMO1 at 5 uM using RanGAP1-SUMO1 as substrate preincubated for 10 mins followed by substrate addition and measured after 30 mins relative to control; details: time 40.0 min
T1 sequence (whole entry): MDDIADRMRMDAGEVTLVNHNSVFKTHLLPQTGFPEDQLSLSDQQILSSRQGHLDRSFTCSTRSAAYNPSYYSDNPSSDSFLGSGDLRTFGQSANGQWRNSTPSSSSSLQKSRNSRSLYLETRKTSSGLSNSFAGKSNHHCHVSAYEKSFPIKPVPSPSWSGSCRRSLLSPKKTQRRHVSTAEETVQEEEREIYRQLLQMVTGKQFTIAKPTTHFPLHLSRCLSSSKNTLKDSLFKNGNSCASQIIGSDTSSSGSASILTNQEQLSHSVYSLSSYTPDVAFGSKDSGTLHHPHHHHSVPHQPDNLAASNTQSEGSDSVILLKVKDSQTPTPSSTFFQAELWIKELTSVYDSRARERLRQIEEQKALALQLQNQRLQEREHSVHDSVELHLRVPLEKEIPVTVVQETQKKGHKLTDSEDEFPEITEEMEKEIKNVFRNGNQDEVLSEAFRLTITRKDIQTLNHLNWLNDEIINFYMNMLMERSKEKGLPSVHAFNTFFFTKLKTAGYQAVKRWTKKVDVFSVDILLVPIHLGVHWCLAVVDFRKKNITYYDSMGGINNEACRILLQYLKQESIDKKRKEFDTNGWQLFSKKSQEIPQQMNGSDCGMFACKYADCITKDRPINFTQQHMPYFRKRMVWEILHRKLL

SK-OV-3 [2] = assay: Cytotoxicity against human SK-OV-3 cells assessed as reduction in cell viability at 25 uM incubated for 48 hrs by SRB assay; format: functional, cell-based
SK-OV-3 [3] = assay: Cytotoxicity against human SK-OV-3 cells assessed as reduction in cell viability incubated for 48 hrs by SRB assay; format: functional, cell-based; details: SK-OV-3, 48 h
SK-OV-3 [4] = assay: Reversal of platinum resistance in cisplatin-resistant human SK-OV-3 cells assessed as reduction in cisplatin IC50 after 48 hrs in presence of cisplatin by SRB assay (reference value: 28.23 microM); format: functional, cell-based; details: SK-OV-3, 48 h
SK-OV-3 [5] = assay: Synergistic reversal of platinum resistance in cisplatin-resistant human SK-OV-3 cells assessed as combination index after 48 hrs in presence of cisplatin by SRB assay; format: functional
SK-OV-3 [6] = assay: Cytotoxicity against human SK-OV-3 cells assessed as cell viability at 500 uM incubated for 48 hrs by SRB assay; format: functional; details: read-out: Activity
[7] = biological target: T1, Sentrin-specific protease 1 (Homo sapiens); assay: Inhibition of SENP1 in human SK-OV-3 cells assessed as increase in SUMOlytated JAK2 level at 5 uM after 48 hrs by immunoprecipitation method; format: cell-based
[8] = biological target: T2, Sentrin-specific protease 1 (Homo sapiens, UniProt Q9P0U3); assay: (§1) Inhibition of recombinant human SENP1 assessed as reduction in deSUMOylation using RanGAP1-SUMO1 as substrate preincubated for 10 mins followed by substrate addition and measured after 30 mins
T2 sequence (Q9P0U3 whole entry): T1 sequence (whole entry)

[9] = biological target: T1, Sentrin-specific protease 1 (Homo sapiens); assay: as §1; details: time 40.0 min, DDE = dose-dependent effect

SMILES | inhibition [1] [%] | also measured
C[C@@H]1CC[C@]2(C(=O)O)CC[C@]3(C)C(=CC[C@@H]4[C@@]5(C)C[C@H](O)[C@H](O)C(C)(C)[C@@H]5CC[C@]43C)[C@@H]2[C@]1(C)O | 1.7 | 
C[C@H]1[C@H](C)CC[C@]2(C(=O)O)CC[C@]3(C)C(=CC[C@@H]4[C@@]5(C)CC[C@@H](O)C(C)(C)[C@@H]5CC[C@]43C)[C@H]12 | 8.4 | 
C[C@H]1[C@H](C)CC[C@]2(CO)CC[C@]3(C)C(=CC[C@@H]4[C@@]5(C)CC[C@H](O)C(C)(C)[C@@H]5CC[C@]43C)[C@H]12 | 58.4 | 
C[C@H]1[C@H](C)CC[C@]2(C)CC[C@]3(C)C(=CC(=O)[C@@H]4[C@@]5(C)CC[C@@H](O)[C@](C)(C(=O)O)[C@@H]5CC[C@]43C)[C@H]12 | 8.9 | 
C[C@@H]1CC[C@]2(C(=O)O)CC[C@]3(C)C(=CC[C@@H]4[C@@]5(C)C[C@@H](O)[C@@H](O)C(C)(C)[C@@H]5CC[C@]43C)[C@@H]2[C@]1(C)O | 66.6 | 
C[C@H]1[C@H](C)CC[C@]2(C(=O)O)CC[C@]3(C)C(=CC[C@@H]4[C@@]5(C)C[C@@H](O)[C@H](O)C(C)(C)[C@@H]5CC[C@]43C)[C@H]12 [COROSOLIC ACID] | 34.4 | Activity (SK-OV-3 [2]): Active; IC50 (SK-OV-3 [3]): 10.5 µM; IC50 (SK-OV-3 [4]): 26.4 µM
C[C@H]1[C@H](C)CC[C@]2(C(=O)O)CC[C@]3(C)C(=CC[C@@H]4[C@@]5(C)CC[C@H](O)C(C)(C)[C@@H]5CC[C@]43C)[C@H]12 | 87.6 | 
C[C@@H]1CC[C@]2(C(=O)O)CC[C@]3(C)C(=CC[C@@H]4[C@@]5(C)CC[C@@H](O)[C@](C)(CO)[C@@H]5CC[C@]43C)[C@@H]2[C@]1(C)O | 19.9 | 
C[C@H]1[C@H](C)CC[C@]2(C)CC[C@]3(C)C(=CC[C@@H]4[C@@]5(C)CC[C@@H](O)[C@](C)(C(=O)O)[C@@H]5CC[C@]43C)[C@H]12 | 3.9 | 
C=C(C)[C@@H]1CC[C@]2(C)[C@H](CC=C3[C@@H]4[C@@H](C)[C@H](C)CC[C@]4(C)CC[C@]32C)[C@@]1(C)CCC(=O)O | 5.5 | 
CC1(C)CC[C@]2(C(=O)O)[C@H](O)C[C@]3(C)C(=CC[C@@H]4[C@@]5(C)CC[C@H](O)C(C)(C)[C@@H]5CC[C@]43C)[C@@H]2C1 |  | IC50 (SK-OV-3 [3]): 96.5 µM; IC50 (SK-OV-3 [4]): 21.5 µM
C[C@@H]1[C@H]2C3=CC[C@@H]4[C@@]5(C)CC[C@H](O)C(C)(C)[C@@H]5CC[C@@]4(C)[C@]3(C)CC[C@@]2(C)CC[C@H]1C(=O)O | 69.2 | 
C[C@@H]1CC[C@]2(C(=O)O)CC[C@]3(C)C(=CC[C@@H]4[C@@]5(C)[C@H](O)[C@@H](O)[C@H](O)C(C)(C)[C@@H]5CC[C@]43C)[C@@H]2[C@]1(C)O | 78.4 | 
C[C@H]1[C@H](C)CC[C@]2(C(=O)O)CC[C@]3(C)C(=CC[C@@H]4[C@@]5(C)C[C@@H](O)[C@H](O)[C@@](C)(CO)[C@@H]5CC[C@]43C)[C@H]12 | 6.6 | 
C[C@@H]1[C@H]2C3=CC[C@@H]4[C@@]5(C)CC[C@@H](O)C(C)(C)[C@@H]5CC[C@@]4(C)[C@]3(C)CC[C@@]2(C)[C@@H](O)C[C@H]1C(=O)O | 65.5 | 
C[C@@H]1CC[C@]2(C(=O)O)CC[C@]3(C)C(=CC[C@@H]4[C@@]5(C)C[C@@H](O)[C@H](O)C(C)(C)[C@@H]5CC[C@]43C)[C@@H]2[C@]1(C)O [TOMENTIC ACID] | > 100 | CI (SK-OV-3 [5]): 0.3; IC50 (SK-OV-3 [3]): 23.2 µM; IC50 (SK-OV-3 [4]): 2.4 µM; viability at 500 µM (SK-OV-3 [6]): > 25%; inhibition [7]: Active; IC50 [8]: 4.3 µM; inhibition [9]: Dde
C[C@@H]1CC[C@]2(C(=O)O)CC[C@]3(C)C(=CC[C@@H]4[C@@]5(C)CC[C@H](O)C(C)(C)[C@@H]5CC[C@]43C)[C@@H]2[C@]1(C)O [POMOLIC ACID] | > 100 | CI (SK-OV-3 [5]): 0.23; IC50 (SK-OV-3 [3]): 51.6 µM; IC50 (SK-OV-3 [4]): 3.69 µM; viability at 500 µM (SK-OV-3 [6]): > 25%; inhibition [7]: Active; IC50 [8]: 5.1 µM; inhibition [9]: Dde
C[C@@H]1CC[C@]2(C(=O)O)CC[C@]3(C)C(=CC[C@@H]4[C@@]5(C)CC[C@H](O)[C@@](C)(CO)[C@@H]5[C@H](O)C[C@]43C)[C@@H]2[C@]1(C)O | 0.5 | 
C[C@@H]1CC[C@]2(C(=O)O)CC[C@]3(C)C(=CC[C@@H]4[C@@]5(C)C=C(O)C(=O)C(C)(C)[C@@H]5CC[C@]43C)[C@@H]2[C@]1(C)O | 6 | 
C[C@@H]1CC[C@]2(C(=O)O)CC[C@]3(C)C(=CC[C@@H]4[C@@]5(C)CC[C@H](O)C(C)(C)[C@@H]5[C@H](O)C[C@]43C)[C@@H]2[C@]1(C)O | 3.2 | 
C[C@@H]1CC[C@]2(C(=O)O)CC[C@]3(C)C(=CC[C@@H]4[C@@]5(C)[C@H](O)C(=O)[C@H](O)C(C)(C)[C@@H]5CC[C@]43C)[C@@H]2[C@]1(C)O | 1.9 | 
